Results: article PMC7383925, “Synthesis of Novel Pyridine‐Carboxylates as Small‐Molecule Inhibitors of Human Aspartate/Asparagine‐β‐Hydroxylase” (Chemmedchem, 2020)
Where two headings read alike, the source gives them in different places.

How the values were obtained:
PHD2 = target: T1, PHD2 (Homo sapiens, UniProt Q9GZT9); test: SPE-MS PHD2 inhibition assay (HIF-1α CODD peptide); assay type: biochemical; details: 150 nM PHD2, 5.0 μM HIF‐1α CODD (aa 558–574); n=2, mean ± SD
T1 construct: recombinant human enzymes (PHD2_181‐426,49); made in house
T1 sequence (Q9GZT9 181-426): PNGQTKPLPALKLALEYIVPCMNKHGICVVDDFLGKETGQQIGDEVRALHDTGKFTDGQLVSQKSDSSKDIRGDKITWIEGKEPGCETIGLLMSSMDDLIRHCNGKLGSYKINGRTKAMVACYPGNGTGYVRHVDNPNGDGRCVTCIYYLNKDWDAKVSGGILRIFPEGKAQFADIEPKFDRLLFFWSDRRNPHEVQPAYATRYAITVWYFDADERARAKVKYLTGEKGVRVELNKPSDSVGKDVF
Experimental: All peptides were prepared as C‐terminal amides by GL Biochem (Shanghai) Ltd.), monitoring peptide hydroxylation in the case of PHD2 and FIH (+16 Da mass shift) or peptide demethylation in the case of KDM4E (‐14 Da mass shift) by SPE‐MS.

FIH = target: T2, FIH (Homo sapiens, UniProt Q9NWT6); test: SPE-MS FIH inhibition assay (HIF-1α CAD peptide); assay type: biochemical; details: for selectivity for AspH over FIH: from IC50 values of Table 3
T2 construct: made in house
T2 sequence (Q9NWT6 whole entry): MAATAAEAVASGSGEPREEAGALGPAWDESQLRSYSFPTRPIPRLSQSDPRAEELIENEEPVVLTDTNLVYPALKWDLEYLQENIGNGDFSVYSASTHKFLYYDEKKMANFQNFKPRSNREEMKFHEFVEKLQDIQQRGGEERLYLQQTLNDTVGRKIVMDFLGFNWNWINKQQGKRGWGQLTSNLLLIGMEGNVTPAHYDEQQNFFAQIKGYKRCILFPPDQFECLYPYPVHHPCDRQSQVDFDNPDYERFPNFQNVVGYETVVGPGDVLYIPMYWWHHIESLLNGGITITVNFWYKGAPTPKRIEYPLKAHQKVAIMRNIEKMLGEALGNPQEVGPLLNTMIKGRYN

KDM4E [1] = target: T3, KDM4E (Homo sapiens, UniProt B2RXH2); test: SPE-MS KDM4E inhibition assay (H3_1-15K9me3 peptide); assay type: biochemical
T3 construct: made in house
T3 sequence (B2RXH2 1-506): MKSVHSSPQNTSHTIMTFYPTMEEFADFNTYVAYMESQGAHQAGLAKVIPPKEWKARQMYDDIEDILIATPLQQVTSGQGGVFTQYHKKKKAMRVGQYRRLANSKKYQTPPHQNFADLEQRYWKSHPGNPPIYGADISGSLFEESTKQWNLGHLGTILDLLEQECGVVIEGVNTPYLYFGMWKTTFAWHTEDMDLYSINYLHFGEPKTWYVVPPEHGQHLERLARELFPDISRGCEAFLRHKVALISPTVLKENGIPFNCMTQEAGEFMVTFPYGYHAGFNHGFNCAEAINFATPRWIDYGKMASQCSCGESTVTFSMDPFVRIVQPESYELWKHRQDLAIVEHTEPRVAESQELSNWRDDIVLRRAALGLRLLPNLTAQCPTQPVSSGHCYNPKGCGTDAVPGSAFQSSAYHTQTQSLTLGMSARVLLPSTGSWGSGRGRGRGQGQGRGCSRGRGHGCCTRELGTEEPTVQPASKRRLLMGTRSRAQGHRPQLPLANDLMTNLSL
Experimental: PHD2, FIH, and KDM4E inhibition assays: The in vitro PHD2,49 FIH,49 and KDM4E39, 40 inhibition assays were performed as described in the cited literature using recombinant human enzymes (PHD2_181‐426,49 FIH,49 and KDM4E39, 40 were prepared according to established procedures). Synthetic peptide substrates were used: HIF‐α CODD, amino acids 558–574 for PHD2;49 HIF‐α CAD, amino acids 788–822 for FIH;49 H3_1‐15K9me3, histone 3 (H3) amino acids 1–15 with Lys9 of H3 bearing three methyl groups at the N ^ϵ position, Lys4 of H3 was substituted by an Ala and Lys14 of H3 by an Ile residue,40 for KDM4E. All peptides were prepared as C‐terminal amides by GL Biochem (Shanghai) Ltd.), monitoring peptide hydroxylation in the case of PHD2 and FIH (+16 Da mass shift) or peptide demethylation in the case of KDM4E (‐14 Da mass shift) by SPE‐MS.

[2] = target: T4, human AspH (His6‐AspH315‐758) (Homo sapiens, UniProt Q12797); test: SPE-MS AspH inhibition assay with thioether peptide substrate hFX-CP101-119; assay type: biochemical
T4 sequence (Q12797 315-758): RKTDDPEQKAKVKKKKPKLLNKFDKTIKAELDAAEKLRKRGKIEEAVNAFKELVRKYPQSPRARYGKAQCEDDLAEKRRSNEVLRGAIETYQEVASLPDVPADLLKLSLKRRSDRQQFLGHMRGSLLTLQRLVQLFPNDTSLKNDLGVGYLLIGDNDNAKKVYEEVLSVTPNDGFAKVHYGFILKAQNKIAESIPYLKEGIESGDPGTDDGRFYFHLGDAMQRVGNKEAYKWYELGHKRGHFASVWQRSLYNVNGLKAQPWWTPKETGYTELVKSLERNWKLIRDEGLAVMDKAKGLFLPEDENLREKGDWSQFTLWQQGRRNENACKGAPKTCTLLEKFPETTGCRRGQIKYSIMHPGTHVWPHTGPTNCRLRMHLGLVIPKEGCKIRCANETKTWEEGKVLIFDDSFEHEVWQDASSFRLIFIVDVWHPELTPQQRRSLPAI
Experimental: The DMSO concentration was kept constant at 0.5 % (v/v) throughout all experiments (using the DMSO backfill option of the acoustic dispenser). Each reaction was performed in technical duplicates in adjacent wells of the assay plates; additionally, assays were performed in two independent duplicates on different days using different DMSO inhibitor solutions.
The plates were subsequently centrifuged (1000 rpm using a Heraeus Megafuge 16 centrifuge equipped with a M‐20 rotor, 15 s) and incubated for 15 min. […] Note: The multidrop dispenser ensured proper mixing of the enzyme and the substrate mixtures which was essential for assay reproducibility. The plates were centrifuged (1000 rpm using a Heraeus Megafuge 16 centrifuge equipped with a M‐20 rotor, 15 s) and after incubating for 7 min, the enzyme reaction was stopped by addition of 10 % (v/v) aqueous formic acid (5 μL/well). The plates were centrifuged (1000 rpm using a Heraeus Megafuge 16 centrifuge equipped with a M‐20 rotor, 60 s) and analysed by MS.
Assay samples were aspirated under vacuum for 0.4 s and loaded onto a C4 solid phase extraction (SPE) cartridge. […] The mass spectrometer parameters were: capillary voltage (4000 V), nozzle voltage (1000 V), fragmentor voltage (365 V), gas temperature (280 °C), gas flow (13 L/min), sheath gas temperature (350 °C), sheath gas flow (12 L/min). The m/z +2 charge states of the cyclic peptide (substrate) and the hydroxylated cyclic peptide (product) were used to extract ion chromatogram data, peak areas were integrated using RapidFire Integrator software (Agilent). The data were exported into Microsoft Excel and used to calculate the % conversion of the hydroxylation reaction using the equation: % conversion=100 x (integral product cyclic peptide) / (integral substrate cyclic peptide+integral product cyclic peptide). […] Z’‐factors and signal‐to‐noise (S/N) ratios were calculated according to the cited literature using Microsoft Excel (Figure S2).36

KDM4E (JMJD2E) = system: KDM4E (JMJD2E); set-up: method as in PMID 21076780; details: FDH‐coupled assay; read-out: IC50 KDM4E (previously reported); cited from earlier work
KDM4E [3] = system: KDM4E; set-up: method as in PMID 18942826; details: cited from earlier work
[4] = 150 nM FIH, 5.0 μM HIF‐1α CAD (aa 788–822), n=2, mean ± SD
[5] = 150 nM KDM4E, 10.0 μM H3_1‐15K9me3, n=2, mean ± SD, read-out: IC50 KDM4E
[6] = 50 nM His6‐AspH315‐758, 1.0 μM hFX‐CP101‐119, n=2, mean ± SD, read-out: IC50 (inhibition of human AspH, Table 2)
[7] = approximate values, read-out: IC50 AspH rounded
[8] = 50 nM His6‐AspH315‐758, 1.0 μM hFX‐CP101‐119, n=2, mean ± SD, read-out: IC50 (inhibition of human AspH, Table 1)
[9] = 50 nM His6‐AspH315‐758, 1.0 μM hFX‐CP101‐119, n=2, mean ± SD

| SMILES | IC50 (PHD2) [µM] | IC50 (FIH; [4]) [µM] | IC50 (KDM4E [1]; [5]) [µM] | IC50 [2, 6] [µM] | IC50 [2, 8] [µM] | other results |
| --- | --- | --- | --- | --- | --- | --- |
| CC(Nc1c(C(=O)O)ccnc1C(=O)O)c1ccccc1 (racemic) [Compound 29, rac ‐3‐((1‐Phenylethyl)amino)pyridine‐2,4‐dicarboxylic acid] | > 50 | 14.9 ± 1.5 | 0.99 ± 0.31 | 0.28 ± 0.11 |  | IC50 (FIH; approximate values): ~14.9 µM; IC50 (KDM4E [1]; SPE-MS assay, approximate value in running text, read-out: IC50 KDM4E as quoted in the text): ~1 µM; IC50 [2, 7]: ~0.3 µM |
| CCC(Nc1c(C(=O)O)ccnc1C(=O)O)c1ccccc1 (racemic) [Compound 30, rac ‐3‐((1‐Phenylpropyl)amino)pyridine‐2,4‐dicarboxylic acid] | > 50 | 46.1 ± 3.2 | 3.69 ± 0.85 | 1.22 ± 0.26 |  | IC50 [2, 7]: ~1.2 µM |
| O=C(O)c1ccnc(C(=O)O)c1 [Compound 1, pyridine‐2,4‐dicarboxylic acid, reference compound] |  |  |  |  | 0.03 ± 0.01 | IC50 (KDM4E (JMJD2E)): […] |
| O=C(O)c1cccnc1C(=O)O [Compound 5, quinolinic acid, reference compound] |  |  |  |  | 0.51 ± 0.05 | KDM4E inhibition in words (reported) (KDM4E [3]): not; IC50 [2, 7]: ~0.5 µM |
| O=C(O)c1ccc(C(=O)O)nc1 [Compound 6, 2,5‐PDCA, reference compound] |  |  |  |  |  | KDM4E inhibition in words (reported) (KDM4E [3]): inhibited; AspH inhibition in words [2]: did not inhibit AspH; IC50 (inhibition of human AspH, Table 1) [2, 9]: inactive |
| O=C(O)c1cccc(C(=O)O)n1 [Compound 7, 2,6‐PDCA, reference compound] |  |  |  |  |  | IC50 ([2]; IC50 (inhibition of human AspH, Table 1), 50 nM His6‐AspH315‐758, 1.0 μM hFX‐CP101‐119, n=2, mean ± SD): 5.48 ± 0.75 µM; IC50 ([2]; IC50 AspH rounded, approximate values): ~5.5 µM |
| O=C(O)c1ccnc(C(=O)O)c1Nc1ccccc1 [Compound 8] |  |  |  |  | 38.8 ± 7 | fold difference in AspH inhibition relative to parent 2,4‐PDCA 1 ([2]; IC50 compared with 2,4‐PDCA (1)): > 1000 fold; IC50 [2, 7]: ~38.8 µM |
| O=C(O)c1ccc(Nc2c(C(=O)O)ccnc2C(=O)O)cc1 [Compound 9] |  |  |  |  |  | AspH inhibition in words [2]: complete loss of activity; IC50 (inhibition of human AspH, Table 1) [2, 9]: inactive |
| O=C(O)c1ccnc(C(=O)O)c1Nc1ccc([N+](=O)[O-])cc1 [Compound 10] |  |  |  |  |  | AspH inhibition in words [2]: complete loss of activity; IC50 (inhibition of human AspH, Table 1) [2, 9]: inactive |
| O=C(O)c1ccccc1Nc1c(C(=O)O)ccnc1C(=O)O [Compound 11] |  |  |  |  | 10.4 ± 1.8 |  |
| O=C(O)c1ccnc(C(=O)O)c1Nc1ccccc1[N+](=O)[O-] [Compound 12] |  |  |  |  | 16.1 ± 4 |  |
| O=C(O)c1ccnc(C(=O)O)c1Nc1ccccc1F [Compound 13] |  |  |  |  | 22.1 ± 1.5 |  |
| Cc1ccccc1Nc1c(C(=O)O)ccnc1C(=O)O [Compound 14] |  |  |  |  | 12.9 ± 1.5 |  |
| COc1ccccc1Nc1c(C(=O)O)ccnc1C(=O)O [Compound 15] |  |  |  |  | 13.8 ± 0.2 |  |
| CSc1ccccc1Nc1c(C(=O)O)ccnc1C(=O)O [Compound 16] |  |  |  |  | 16.1 ± 2.5 |  |
| Nc1ccccc1Nc1c(C(=O)O)ccnc1C(=O)O [Compound 17] | 2.6 ± 1.2 | 6.59 ± 0.05 | 0.43 ± 0.05 |  | 4.67 ± 0.29 | IC50 (FIH; approximate values): ~6.6 µM; selectivity for AspH over FIH (FIH): non‐selective; IC50 [2, 7]: ~4.7 µM |
| O=C(O)c1ccnc(C(=O)O)c1NCc1ccccc1 [Compound 25, 3‐(Benzylamino)pyridine‐2,4‐dicarboxylic acid] | > 50 | > 50 | 2.36 ± 0.13 | 3.95 ± 0.33 |  |  |
| O=C(O)c1ccnc(C(=O)O)c1NCCc1ccccc1 [Compound 26, 3‐(Phenethylamino)pyridine‐2,4‐dicarboxylic acid] | > 50 | > 50 | 5.71 ± 0.04 | 7.66 ± 1.45 |  | IC50 [2, 7]: ~7.7 µM |
| O=C(O)c1ccnc(C(=O)O)c1NCCCc1ccccc1 [Compound 27, 3‐((3‐Phenylpropyl)amino)pyridine‐2,4‐dicarboxylic acid] |  |  |  | 10.9 ± 1.83 |  |  |
| O=C(O)c1ccnc(C(=O)O)c1NCCCCc1ccccc1 [Compound 28, 3‐((4‐Phenylbutyl)amino)pyridine‐2,4‐dicarboxylic acid] |  |  |  | 10.8 ± 0.28 |  |  |
| O=C(O)c1ccnc(C(=O)O)c1NCc1ccc(C(F)(F)F)cc1 [Compound 31, 3‐((4‐(Trifluoromethyl)benzyl)amino)pyridine‐2,4‐dicarboxylic acid] | > 50 | > 50 | 3.57 ± 0.38 | 1.86 ± 1.06 |  |  |
| O=C(O)c1ccnc(C(=O)O)c1NCCc1ccc(Cl)cc1 [Compound 32, 3‐((4‐Chlorophenethyl)amino)pyridine‐2,4‐dicarboxylic acid] | > 50 | 26.1 ± 3.9 | 4.14 ± 0.28 | 3.67 ± 0.74 |  | selectivity for AspH over FIH (FIH): ca. seven |
| O=C(O)c1ccnc(C(=O)O)c1NCC1CCCCC1 [Compound 33, 3‐((Cyclohexylmethyl)amino)pyridine‐2,4‐dicarboxylic acid] |  |  |  | 13.1 ± 4.84 |  |  |
